Each structure is given as a SMILES string.

53 molecules from patent US10988477B2 (Merck Patent GmbH, priority 2018, dated 2021) can be followed below.

Sequence of GCN2 kinase (Q9P2K8 whole entry): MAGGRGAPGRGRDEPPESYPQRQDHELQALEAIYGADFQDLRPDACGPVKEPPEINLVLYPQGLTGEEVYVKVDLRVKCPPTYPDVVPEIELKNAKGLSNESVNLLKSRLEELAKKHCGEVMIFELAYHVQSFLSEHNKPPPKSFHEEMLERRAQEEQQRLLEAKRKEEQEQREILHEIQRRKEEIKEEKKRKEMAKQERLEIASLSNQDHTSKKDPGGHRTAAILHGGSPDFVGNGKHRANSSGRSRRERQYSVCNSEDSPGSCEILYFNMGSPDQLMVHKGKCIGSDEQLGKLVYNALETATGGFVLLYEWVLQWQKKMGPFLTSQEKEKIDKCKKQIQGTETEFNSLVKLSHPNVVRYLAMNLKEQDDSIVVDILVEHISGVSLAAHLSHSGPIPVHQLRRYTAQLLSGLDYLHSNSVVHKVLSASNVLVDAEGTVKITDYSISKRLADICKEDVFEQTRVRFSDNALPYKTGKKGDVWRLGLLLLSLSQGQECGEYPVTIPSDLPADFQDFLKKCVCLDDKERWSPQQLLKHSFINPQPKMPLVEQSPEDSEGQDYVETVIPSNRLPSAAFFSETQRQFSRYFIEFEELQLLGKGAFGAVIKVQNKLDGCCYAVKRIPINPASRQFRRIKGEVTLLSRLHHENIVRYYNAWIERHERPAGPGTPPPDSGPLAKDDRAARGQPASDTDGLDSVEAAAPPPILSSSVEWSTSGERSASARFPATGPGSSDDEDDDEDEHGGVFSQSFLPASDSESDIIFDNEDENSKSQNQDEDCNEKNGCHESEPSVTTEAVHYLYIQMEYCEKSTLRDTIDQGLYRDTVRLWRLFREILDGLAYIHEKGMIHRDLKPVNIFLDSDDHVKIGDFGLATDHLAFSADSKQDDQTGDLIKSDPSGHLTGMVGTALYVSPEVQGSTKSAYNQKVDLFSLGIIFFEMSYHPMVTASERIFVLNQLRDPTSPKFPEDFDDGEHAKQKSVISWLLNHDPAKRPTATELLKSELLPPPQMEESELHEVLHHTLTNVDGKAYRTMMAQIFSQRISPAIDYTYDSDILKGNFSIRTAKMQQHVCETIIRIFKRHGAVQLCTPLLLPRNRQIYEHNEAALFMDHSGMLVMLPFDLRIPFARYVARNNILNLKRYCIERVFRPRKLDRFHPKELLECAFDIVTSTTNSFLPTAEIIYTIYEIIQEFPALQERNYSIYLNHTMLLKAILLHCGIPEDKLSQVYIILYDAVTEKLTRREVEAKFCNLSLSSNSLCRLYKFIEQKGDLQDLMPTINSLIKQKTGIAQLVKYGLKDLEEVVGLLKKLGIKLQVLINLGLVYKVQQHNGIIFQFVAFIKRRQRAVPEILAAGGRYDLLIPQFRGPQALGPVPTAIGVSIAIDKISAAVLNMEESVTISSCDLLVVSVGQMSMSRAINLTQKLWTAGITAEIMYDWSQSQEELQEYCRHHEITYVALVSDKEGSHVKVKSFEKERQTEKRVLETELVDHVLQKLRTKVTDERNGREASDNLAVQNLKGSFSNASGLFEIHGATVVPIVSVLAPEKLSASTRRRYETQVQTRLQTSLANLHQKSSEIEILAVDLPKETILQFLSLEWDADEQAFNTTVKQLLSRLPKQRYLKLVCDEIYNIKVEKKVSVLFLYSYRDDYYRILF

The first assay addresses GCN2 kinase (Homo sapiens, UniProt Q9P2K8). Briefly: GCN2 enzyme inhibition assay (Transcreener ADP2 fluorescence polarization). Type of assay: biochemical. The conditions noted are these: Enzyme activity for compounds of Formula IV; Ki(app), 280 μM ATP, 25° C. An outline of the steps: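 FP detection of ADP (antibody plus Alexa633 tracer) after a 1 h, 25 °C kinase reaction. Enzyme 4 nM, ATP 280 μM, (RS)7 peptide 200 μM, Tris pH 7.5 buffer with MgCl2 and DTT. Percent inhibition fitted by non-linear tight-binding algorithm for IC50 and Ki(app).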
Background: Polarisation of emitted light reports the rotation of a fluorescent probe.
In turn, `FC(F)(F)c1cn2c(-c3nccc(N4CCCC(c5nncs5)C4)n3)cnc2cn1` (centres unmarked) [IV-671, 2-(1-(2-(6-(Trifluoromethyl)imidazo[1,2-a]pyrazin-3-yl)pyrimidin-4-yl)piperidin-3-yl)-1,3,4-thiadiazole] came in with a Ki of 0.1 to 1 µM. As to `FC(F)(F)c1cn2c(-c3nccc(N4CC(CN5CCC5)CC(c5cn[nH]c5)C4)n3)cnc2cn1` (centres unmarked) [IV-681, 3-(4-(3-(Azetidin-1-ylmethyl)-5-(1H-pyrazol-4-yl)piperidin-1-yl)pyrimidin-2-yl)-6-(trifluoromethyl)imidazo[1,2-a]pyrazine], the Ki fell in the range of 0.01 to 0.1 µM.

Molecule `CC1C(c2cn[nH]c2)CC(P(C)(C)=O)CN1c1ccnc(-c2cnc3cnc(C(F)(F)F)cn23)n1` (centres unmarked) [IV-697, Dimethyl(6-methyl-5-(1H-pyrazol-4-yl)-1-(2-(6-(trifluoromethyl)imidazo[1,2-a]pyrazin-3-yl)pyrimidin-4-yl)piperidin-3-yl)phosphine oxide] registered a Ki of 0.1 to 1 µM. Still for that read-out and setting: next, `CS(=O)(=O)N1CCC2(CC1)CN(c1ccnc(-c3cnc4cnc(C(F)(F)F)cn34)n1)C2` [IV-698, 3-(4-(7-(Methylsulfonyl)-2,7-diazaspiro[3.5]nonan-2-yl)pyrimidin-2-yl)-6-(trifluoromethyl)imidazo[1,2-a]pyrazine]: 0.1 to 1 µM. As to `CC(=O)N1CCN(c2ccnc(-c3cnc4cnc(C(N)=O)cn34)n2)CC1(C)C` [IV-699, 3-(4-(4-Acetyl-3,3-dimethylpiperazin-1-yl)pyrimidin-2-yl)imidazo[1,2-a]pyrazine-6-carboxamide], the Ki fell in the range of 0.1 to 1 µM. The same measure, in the same setting: next, `CC(=O)N1CCN(c2ccc(C(F)(F)F)c(-c3cnc4cnc(C(N)=O)cn34)n2)CC1` [IV-700, 3-(6-(4-acetylpiperazin-1-yl)-3-(trifluoromethyl)pyridin-2-yl)imidazo[1,2-a]pyrazine-6-carboxamide]: 0.1 to 1 µM; `COc1cnc(N2CCN(C(C)=O)CC2)nc1-c1cnc2cnc(C(N)=O)cn12` [IV-701, 3-(2-(4-acetylpiperazin-1-yl)-5-methoxypyrimidin-4-yl)imidazo[1,2-a]pyrazine-6-carboxamide]: 0.1 to 1 µM. In turn, `FC(F)(F)c1cn2c(-c3nccc(N4CCC[C@@H](c5c[nH]cn5)C4)n3)cnc2cn1` [IV-706] showed a Ki of less than 0.01 µM. On the same count and under the same terms, next, `FC(F)(F)c1cn2c(-c3nccc(N4CCC[C@H](c5c[nH]cn5)C4)n3)cnc2cn1` [IV-707]: 0.01 to 0.1 µM; `FC(F)(F)c1cn2c(-c3nccc(N4CCCC(c5ncc[nH]5)C4)n3)cnc2cn1` (centres unmarked) [IV-708]: 0.01 to 0.1 µM; `O=C(N[C@@H]1CCCN(c2ccnc(-c3cnc4cnc(C(F)(F)F)cn34)n2)C1)c1cn[nH]c1` [IV-709]: 0.1 to 1 µM. `NS(=O)(=O)c1ccc(C(=O)N[C@@H]2CCCN(c3ccnc(-c4cnc5cnc(C(F)(F)F)cn45)n3)C2)o1` [IV-710]: the Ki was 0.1 to 1 µM. Same read-out and setting: next, `FC(F)(F)c1cn2c(-c3nccc(N4CCOC(c5cccnc5)C4)n3)cnc2cn1` (centres unmarked) [IV-711]: 0.1 to 1 µM. Turning to `FC(F)(F)c1cn2c(-c3nccc(N4CCO[C@H](c5ccccn5)C4)n3)cnc2cn1` [IV-713], the Ki was 0.1 to 1 µM. On the same count and under the same terms, the figure for `Cc1csc2c1CN(c1ccnc(-c3cnc4cnc(C(F)(F)F)cn34)n1)CC2` [IV-714] is 0.1 to 1 µM; for `NS(=O)(=O)c1cc2c(s1)CCN(c1ccnc(-c3cnc4cnc(C(F)(F)F)cn34)n1)C2` [IV-715] it is 0.1 to 1 µM. The same measure, in the same setting: the figure for `FC(F)(F)c1cn2c(-c3nccc(N4CCOC(c5ccccn5)C4)n3)cnc2cn1` (centres unmarked) [IV-717] is 0.1 to 1 µM; for `C[C@H]1CN(c2ccnc(-c3cnc4cnc(C(F)(F)F)cn34)n2)C[C@@H](c2nc(C3CC3)no2)O1` [IV-718] it is 0.1 to 1 µM. Turning to `FC(F)(F)c1cn2c(-c3nccc(N4CCCC(c5ncccn5)C4)n3)cnc2cn1` (centres unmarked) [IV-719], the Ki was 0.1 to 1 µM. `O=C(Nc1ccncc1)[C@H]1CCCN(c2ccnc(-c3cnc4cnc(C(F)(F)F)cn34)n2)C1` [IV-720] displayed a Ki of 0.1 to 1 µM.

As for `O=C(Nc1cn[nH]c1)[C@H]1CCCN(c2ccnc(-c3cnc4cnc(C(F)(F)F)cn34)n2)C1` [IV-721], the Ki was 0.1 to 1 µM. On the same count and under the same terms, next, `FC(F)(F)c1cn2c(-c3nccc(N4CCO[C@@H](c5ccccn5)C4)n3)cnc2cn1` [IV-722]: 0.1 to 1 µM. The same measure, in the same setting: the figure for `O=C(Nc1cccnc1)[C@H]1CCCN(c2ccnc(-c3cnc4cnc(C(F)(F)F)cn34)n2)C1` [IV-723] is 0.1 to 1 µM.

As to `O=C(Nc1cn[nH]c1)[C@@H]1CCCN(c2ccnc(-c3cnc4cnc(C(F)(F)F)cn34)n2)C1` [IV-725], the Ki is greater than 1 µM. Same read-out and setting: next, `N#CC1CN(c2ccnc(-c3cnc4cnc(C(F)(F)F)cn34)n2)CCO1` (centres unmarked) [IV-726]: greater than 1 µM; `CS(=O)(=O)N=S1(=O)CCN(c2ccnc(-c3cnc4cnc(C(F)(F)F)cn34)n2)CC1` [IV-727]: greater than 1 µM. Same read-out and setting: the figure for `Cn1cc(NC(=O)[C@@H]2CCCN(c3ccnc(-c4cnc5cnc(C(F)(F)F)cn45)n3)C2)cn1` [IV-728] is greater than 1 µM.

`N=S1(=O)CCN(c2ccnc(-c3cnc4cnc(C(F)(F)F)cn34)n2)CC1` [IV-729] gave a Ki greater than 1 µM. The same measure, in the same setting: next, `CC1c2ccsc2CCN1c1ccnc(-c2cnc3cnc(C(F)(F)F)cn23)n1` (centres unmarked) [IV-730]: greater than 1 µM. The same measure, in the same setting: next, `O=C(O)C1c2sccc2CCN1c1ccnc(-c2cnc3cnc(C(F)(F)F)cn23)n1` (centres unmarked) [IV-731]: greater than 1 µM; `O=C(N[C@H]1CCCN(c2ccnc(-c3cnc4cnc(C(F)(F)F)cn34)n2)C1)C1CC1` [IV-732]: greater than 1 µM. Same read-out and setting: the figure for `O=C(N[C@H]1CCCN(c2ccnc(-c3cnc4cnc(C(F)(F)F)cn34)n2)C1)c1cccnc1F` [IV-734] is greater than 1 µM.

In turn, `NS(=O)(=O)c1ccc(C(=O)N[C@H]2CCCN(c3ccnc(-c4cnc5cnc(C(F)(F)F)cn45)n3)C2)o1` [IV-735] gave a Ki greater than 1 µM. In the case of `N[C@H]1CCCN(c2ccnc(-c3cnc4cnc(C(F)(F)F)cn34)n2)C1` [IV-736], the Ki is greater than 1 µM.

Take `O=C(N[C@H]1CCCN(c2ccnc(-c3cnc4cnc(C(F)(F)F)cn34)n2)C1)c1cc[nH]n1` [IV-737]: the Ki is greater than 1 µM.

On to `O=C(Nc1cccnc1)[C@@H]1CCCN(c2ccnc(-c3cnc4cnc(C(F)(F)F)cn34)n2)C1` [IV-738], for which the Ki was greater than 1 µM. Same read-out and setting: next, `Cn1cc(NC(=O)[C@H]2CCCN(c3ccnc(-c4cnc5cnc(C(F)(F)F)cn45)n3)C2)cn1` [IV-739]: greater than 1 µM; `O=C(Nc1ccccn1)[C@H]1CCCN(c2ccnc(-c3cnc4cnc(C(F)(F)F)cn34)n2)C1` [IV-740]: greater than 1 µM; `O=C(N[C@H]1CCCN(c2ccnc(-c3cnc4cnc(C(F)(F)F)cn34)n2)C1)c1ccn(C2CC2)n1` [IV-742]: greater than 1 µM.

In the case of `O=C(N[C@H]1CCCN(c2ccnc(-c3cnc4cnc(C(F)(F)F)cn34)n2)C1)c1ccc(F)cc1F` [IV-744], the Ki is greater than 1 µM.

On to `COCCn1ccc(C(=O)N[C@H]2CCCN(c3ccnc(-c4cnc5cnc(C(F)(F)F)cn45)n3)C2)n1` [IV-745], for which the Ki was greater than 1 µM. Same read-out and setting: the figure for `O=C(N[C@H]1CCCN(c2ccnc(-c3cnc4cnc(C(F)(F)F)cn34)n2)C1)c1ccc(F)c(F)c1` [IV-746] is greater than 1 µM; for `CS(C)(=O)=NCC(=O)N[C@H]1CCCN(c2ccnc(-c3cnc4cnc(C(F)(F)F)cn34)n2)C1` [IV-747] it is greater than 1 µM; for `O=C(N[C@H]1CCCN(c2ccnc(-c3cnc4cnc(C(F)(F)F)cn34)n2)C1)c1ccoc1` [IV-748] it is greater than 1 µM. As for `FC(F)(F)c1cn2c(-c3nccc(N4CCc5sccc5C4)n3)cnc2cn1` [IV-749], the Ki is greater than 1 µM. Still for that read-out and setting: the figure for `CC(C)(C)n1cc(C(=O)N[C@H]2CCCN(c3ccnc(-c4cnc5cnc(C(F)(F)F)cn45)n3)C2)nn1` [IV-750] is greater than 1 µM. Still for that read-out and setting: next, `O=C(N[C@H]1CCCN(c2ccnc(-c3cnc4cnc(C(F)(F)F)cn34)n2)C1)c1c[nH]cn1` [IV-751]: greater than 1 µM.

The assay is the same for the next values; noted with them: compounds of Formula IV; 280 μM ATP, 4 nM GCN2 kinase.
On to `Cc1n[nH]cc1[C@H]1C[C@H](C)CN(c2nccc(-c3cnc4cnc(C(F)(F)F)cn34)n2)C1` [IV-755, 3-(2-((3S,5R)-3-methyl-5-(3-methyl-1H-pyrazol-4-yl)piperidin-1-yl)pyrimidin-4-yl)-6-(trifluoromethyl)imidazo[1,2-a]pyrazine], for which the IC50 – broadly, the concentration that inhibits the measured activity by half – was 0.01 to 1 µM. On the same count and under the same terms, next, `Cc1n[nH]cc1[C@@H]1C[C@@H](C)CN(c2nccc(-c3cnc4cnc(C(F)(F)F)cn34)n2)C1` [IV-756, -(2-((3R,5S)-3-methyl-5-(3-methyl-1H-pyrazol-4-yl)piperidin-1-yl)pyrimidin-4-yl)-6-(trifluoromethyl)imidazo[1,2-a]pyrazine]: 0.01 to 1 µM; `Cc1n[nH]cc1[C@@H]1C[C@H](C)CN(c2nccc(-c3cnc4cnc(C(F)(F)F)cn34)n2)C1` [IV-759, 3-(2-((3S,5S)-3-methyl-5-(3-methyl-1H-pyrazol-4-yl)piperidin-1-yl)pyrimidin-4-yl)-6-(trifluoromethyl)imidazo[1,2-a]pyrazine]: 0.01 to 1 µM; `Cc1n[nH]cc1[C@@H]1CN(c2ccnc(-c3cnc4cnc(C(F)(F)F)cn34)n2)C[C@@H](C)O1` [IV-760, (2R,6R)-2-methyl-6-(3-methyl-1H-pyrazol-4-yl)-4-(2-(6-(trifluoromethyl)imidazo[1,2-a]pyrazin-3-yl)pyrimidin-4-yl)morpholine]: 0.01 to 1 µM. The same measure, in the same setting: next, `Cc1n[nH]cc1[C@H]1CN(c2ccnc(-c3cnc4cnc(C(F)(F)F)cn34)n2)C[C@H](C)O1` [IV-761, (2S,6S)-2-methyl-6-(3-methyl-1H-pyrazol-4-yl)-4-(2-(6-(trifluoromethyl)imidazo[1,2-a]pyrazin-3-yl)pyrimidin-4-yl)morpholine]: 0.01 to 1 µM; `C[C@H]1C[C@H](c2cn[nH]c2)CN(c2ccnc(-c3cnc4cnc(C(F)(F)F)cn34)n2)C1` [IV-768, 3-(4-((3S,5R)-3-methyl-5-(1H-pyrazol-4-yl)piperidin-1-yl)pyrimidin-2-yl)-6-(trifluoromethyl)imidazo[1,2-a]pyrazine]: 0.01 to 1 µM.
